Data on two molecules can be found in paper PMC3062375 (Biochemistry, 2011).

The target in the experiment is T1, S100A11 protein (Sus scrofa, UniProt P31950).
T1 sequence (P31950 1-99): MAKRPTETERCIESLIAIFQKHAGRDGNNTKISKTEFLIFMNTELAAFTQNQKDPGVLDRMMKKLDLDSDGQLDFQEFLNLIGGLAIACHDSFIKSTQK
Description: Tryptophan fluorescence titration of peptide binding to S100A11. Also noted: species or system porcine.

Non-standard residues stand in square brackets, D forms with d. Residues, ends and D or L forms follow the SMILES beside them. No end group written: not given here. pS = N[C@@H](COP(=O)(O)O)C(=O)O

For the molecule `CC[C@H](C)[C@H](NC(=O)[C@H](Cc1ccccc1)NC(=O)[C@H](Cc1c[nH]c2ccccc12)NC(=O)[C@H](C)NC(=O)[C@H](CCC(N)=O)NC(=O)[C@H](CCCCN)NC(=O)[C@H](CC(C)C)NC(=O)[C@H](Cc1ccccc1)NC(=O)[C@H](CCC(=O)O)NC(=O)[C@H](COP(=O)(O)O)NC(=O)[C@@H](NC(=O)[C@H](CCSC)NC(=O)[C@H](C)NC(C)=O)C(C)C)C(=O)N[C@@H](CCC(=O)O)C(=O)N[C@@H](CC(N)=O)C(=O)N[C@@H](CCC(=O)O)C(=O)N[C@@H](CCC(=O)O)C(=O)N[C@@H](CCC(N)=O)C(=O)O` [Ac1−18P, Ac-AMV[pSer]EFLKQAWFIENEEQ] (Ac-AMV[pS]EFLKQAWFIENEEQ-OH), binding was characterised by a dissociation constant (Kd) of 56.8 ± 1 µM. In the case of “Ac-AMVSEFLKQAWFIENEEQ [Ac1−18, Ac-AMVSEFLKQAWFIENEEQ]” it was 2.1 ± 0.2 µM.
